Laboratory results taken from article PMC4492822 (EMBO Molecular Medicine, 2015).

Key:
[1] = test system: lung cancer cell lines (A549, H1299, H460, H23, and H196); assay: Combination experiments with chemotherapy; format: cell-based
A549 cells = assay: 53BP1 and γH2AX foci after radiation (immunofluorescence); format: cell-based, human; settings: 6 μM, 12 h before 2-Gy radiation
Procedure: A549 cells were allowed to attach overnight in chamber slides. For DDR experiments (Fig6A), cells were incubated with RK-33 for 12 h and then radiated with 2 Gy. After 0, 1, 6, and 24 h, cells were fixed and stained. Cells were fixed for 15 min in 4% formalin, washed with PBS, permeabilized (PBS containing 0.2% Triton X-100) for 5 min, and blocked for 30 min with 10% goat serum. […] Next, cells were washed with PBS and incubated with secondary antibodies, CY3 (1:200, goat anti-mouse, 115-165-071, Jackson Immuno Research) or Alexa fluor 488 (1:200, goat anti-rabbit, A11034, Invitrogen) for 1 h. Cells were washed, nuclei-stained with 4′,6-diamidino-2-phenylindole (DAPI), and cover-slipped. Photographs were taken with Nikon Eclipse 80i fluorescence microscope using a CoolSnap ES camera (Roper scientific, Sarasota, FL, USA).

H3255 = assay: MTS viability assay, 72 h, line with low DDX3 expression; format: cell-based
Procedure: Proliferation was determined by counting cancer cells over time. Cells were seeded at 7.5 × 10^4 cells/well and counted daily with a TC10 automated cell counter (Bio-Rad, Hercules, CA, USA) at least three times. Viability of cancer cells was determined by MTS assay (CellTiter 96® AQueous One Solution, Promega, Madison, WI, USA) as described by the manufacturer. Briefly, 800–2,000 cells were allowed to attach overnight in a 96-well plate, treated with different concentrations of RK-33 and kept for 72 h. MTS reagent was kept for 2 h. Each experiment was repeated a minimum of three independent times.

H3255 cells = assay: Immunoblotting of MAPK pathway proteins; format: cell-based; settings: 7.5 μM or 10 μM, 24 h
Procedure: Cell lysate was prepared with TB buffer method. For immunoblotting, ~25 μg protein was loaded on 10% SDS–PAGE gels. […] The blots were developed with clarity Western ECL (Bio-Rad, Hercules, CA, USA) and imaged with G:BOX Chemi XR5 (Syngene, Frederick, MD, USA).

Substance: diimidazo[4,5-d:4′,5′-f]-[1,3]diazepine [RK-33]
- synergy of RK-33 + cisplatin [1]: did not observe significant synergy
- synergy of RK-33 + paclitaxel [1]: did not observe significant synergy
- persistence of radiation-induced DNA damage (53BP1 and γ-H2AX foci) (A549 cells): DNA damage persisted well beyond 24 h
- IC50 (H3255): > 25 µM
- ERK1/2 phosphorylation (H3255 cells): increase of ERK1/2 phosphorylation
